Test results as given in the supplement of paper PMC10307832.

Key:
Assay in all cases: relative viability (nuclei count vs DMSO), 5 days (fraction); higher = more cells survive
[1] = compound: C/C(=N\NC(=S)N1CCC1)/C2=CC=CC=N2 + C[C@]1(O)C[C@@H](c2nc(-c3ccc4ccc(-c5ccccc5)nc4c3)c3c(N)nccn32)C1 [Linsitinib] (partner 1 µM)
In short: (§1)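 Nuclei were stained with Hoechst during a one-step fixation (final 0.05% Triton X-100, 1% formaldehyde, 1 ug/ml Hoechst) carried out 5 days after dosing, then counted on 4× images. The cells, lung cancer lines in 1536-well plates, had been dosed by pin tool the day after seeding with one drug alone or a fixed anchor-drug dose plus five library-drug doses (not always all listed) in √10 steps. Relative viability is the nuclei count in treated wells divided by that in vehicle wells, and each value is the median of duplicate plates.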

[2] = compound: C/C(=N\NC(=S)N1CCC1)/C2=CC=CC=N2 + CC1(C)CCC(c2ccc(Cl)cc2)=C(CN2CCN(c3ccc(C(=O)NS(=O)(=O)c4ccc(N[C@H](CCN5CCOCC5)CSc5ccccc5)c(S(=O)(=O)C(F)(F)F)c4)cc3)CC2)C1 [Navitoclax] (partner 0.5 µM)
In short: as §1

[3] = compound: C/C(=N\NC(=S)N1CCC1)/C2=CC=CC=N2 + COc1cc2c(Oc3ccc(NC(=O)C4(C(=O)Nc5ccc(F)cc5)CC4)cc3F)ccnc2cc1OCCCN1CCOCC1 [Foretinib] (partner 0.25 µM)
In short: as §1

[4] = compound: C/C(=N\NC(=S)N1CCC1)/C2=CC=CC=N2 + CCNC(=O)c1noc(-c2cc(C(C)C)c(O)cc2O)c1-c1ccc(CN2CCOCC2)cc1 [Luminespib] (partner 0.01 µM)
In short: as §1

| Cell Line | relative viability ([1]; first compound 0.05 µM) | relative viability ([1]; first compound 0.1581 µM) | relative viability ([1]; first compound 0.5 µM) | relative viability ([1]; first compound 1.581 µM) | relative viability ([1]; first compound 5 µM) | relative viability ([2]; first compound 0.05 µM) | relative viability ([2]; first compound 0.1581 µM) | relative viability ([2]; first compound 0.5 µM) | relative viability ([2]; first compound 1.581 µM) | relative viability ([2]; first compound 5 µM) | relative viability ([3]; first compound 0.05 µM) | relative viability ([3]; first compound 0.1581 µM) | relative viability ([3]; first compound 0.5 µM) | relative viability ([3]; first compound 1.581 µM) | relative viability ([3]; first compound 5 µM) | relative viability ([4]; first compound 0.05 µM) | relative viability ([4]; first compound 0.1581 µM) | relative viability ([4]; first compound 0.5 µM) | relative viability ([4]; first compound 1.581 µM) | relative viability ([4]; first compound 5 µM) |
| --- | --- | --- | --- | --- | --- | --- | --- | --- | --- | --- | --- | --- | --- | --- | --- | --- | --- | --- | --- | --- |
| LOU-NH91 | 0.466 | 0.509 | 0.424 | 0.407 | 0.422 | 0.275 | 0.308 | 0.253 | 0.225 | 0.278 | 0.519 | 0.447 | 0.507 | 0.469 | 0.375 | 0.257 | 0.293 | 0.274 | 0.185 | 0.264 |
| NCI-H358 | 0.179 | 0.196 | 0.163 | 0.125 | 0.181 |  |  |  |  |  | 0.0918 | 0.107 | 0.0747 | 0.0879 | 0.107 | 0.0782 | 0.118 | 0.144 | 0.108 | 0.0871 |
| NCI-H522 |  |  |  |  |  |  |  |  |  |  |  |  |  |  |  | 0.353 | 0.375 | 0.369 | 0.412 | 0.49 |
| NCI-H650 | 0.214 | 0.262 | 0.251 | 0.153 | 0.18 |  |  |  |  |  | 0.222 | 0.238 | 0.234 | 0.242 | 0.194 | 0.177 | 0.2 | 0.198 | 0.173 | 0.2 |
| NCI-H661 | 0.186 | 0.218 | 0.191 | 0.196 | 0.212 |  |  |  |  |  | 0.294 | 0.307 | 0.244 | 0.264 | 0.24 | 0.246 | 0.221 | 0.212 | 0.202 | 0.219 |
| NCI-H1299 | 0.0879 | 0.112 | 0.133 | 0.152 | 0.145 | 0.0935 | 0.128 | 0.17 | 0.178 | 0.124 | 0.107 | 0.133 | 0.191 | 0.187 | 0.117 |  |  |  |  |  |
| NCI-H1563 | 0.684 | 0.541 | 0.563 | 0.612 | 0.629 |  |  |  |  |  | 0.543 | 0.63 | 0.576 | 0.529 | 0.581 | 0.464 | 0.435 | 0.472 | 0.429 | 0.467 |
| NCI-H1650 |  |  |  |  |  | 0.13 | 0.173 | 0.142 | 0.181 | 0.214 | 0.185 | 0.225 | 0.175 | 0.205 | 0.215 | 0.182 | 0.185 | 0.2 | 0.168 | 0.174 |
| NCI-H1703 | 0.0702 | 0.0548 | 0.068 | 0.0799 | 0.121 | 0.124 | 0.134 | 0.156 | 0.124 | 0.122 | 0.163 | 0.142 | 0.163 | 0.206 | 0.246 |  |  |  |  |  |
| NCI-H1792 | 0.366 | 0.261 | 0.119 | 0.115 | 0.066 | 0.256 | 0.274 | 0.127 | 0.0935 | 0.084 |  |  |  |  |  | 0.23 | 0.187 | 0.176 | 0.169 | 0.157 |
| NCI-H2170 |  |  |  |  |  | 0.581 | 0.543 | 0.168 | 0.207 | 0.189 | 0.871 | 0.341 | 0.312 | 0.199 | 0.203 | 0.689 | 0.25 | 0.136 | 0.18 | 0.151 |
| NCI-H2342 |  |  |  |  |  |  |  |  |  |  | 0.255 | 0.244 | 0.263 | 0.24 | 0.233 | 0.261 | 0.279 | 0.23 | 0.245 | 0.238 |
